The results in this text go back to the kinase profiling compilation of Christmann-Franck et al. (2016).

Among the targets are MYLK3 (human) (UniProt Q32MK0); ERBB4 (human) (UniProt Q15303); MAP3K12 (human) (UniProt Q12852).
What all share (assay): KINOMEscan competition binding

MYLK3 (human), sequence (Q32MK0 whole entry, looked up): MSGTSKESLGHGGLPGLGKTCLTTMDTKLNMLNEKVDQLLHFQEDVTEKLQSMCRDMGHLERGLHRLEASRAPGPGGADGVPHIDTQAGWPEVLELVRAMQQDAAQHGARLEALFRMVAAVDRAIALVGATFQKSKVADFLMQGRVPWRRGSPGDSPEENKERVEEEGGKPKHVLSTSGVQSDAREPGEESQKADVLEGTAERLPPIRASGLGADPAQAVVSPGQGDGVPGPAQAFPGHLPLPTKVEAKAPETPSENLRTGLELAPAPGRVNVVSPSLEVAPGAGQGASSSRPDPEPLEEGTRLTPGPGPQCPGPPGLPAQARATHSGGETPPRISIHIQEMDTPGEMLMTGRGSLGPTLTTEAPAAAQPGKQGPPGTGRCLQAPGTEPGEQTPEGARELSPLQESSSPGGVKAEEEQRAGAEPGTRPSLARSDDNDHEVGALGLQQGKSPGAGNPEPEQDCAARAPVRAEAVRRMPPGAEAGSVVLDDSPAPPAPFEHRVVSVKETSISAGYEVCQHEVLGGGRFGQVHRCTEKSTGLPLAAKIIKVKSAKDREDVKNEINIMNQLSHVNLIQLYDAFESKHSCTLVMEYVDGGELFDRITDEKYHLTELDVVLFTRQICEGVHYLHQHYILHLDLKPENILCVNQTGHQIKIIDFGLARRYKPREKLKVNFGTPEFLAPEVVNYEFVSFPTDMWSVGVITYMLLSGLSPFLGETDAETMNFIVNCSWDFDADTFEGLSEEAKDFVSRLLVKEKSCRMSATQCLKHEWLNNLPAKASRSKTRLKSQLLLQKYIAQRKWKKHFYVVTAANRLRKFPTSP
ERBB4 (human), sequence (Q15303 whole entry, looked up): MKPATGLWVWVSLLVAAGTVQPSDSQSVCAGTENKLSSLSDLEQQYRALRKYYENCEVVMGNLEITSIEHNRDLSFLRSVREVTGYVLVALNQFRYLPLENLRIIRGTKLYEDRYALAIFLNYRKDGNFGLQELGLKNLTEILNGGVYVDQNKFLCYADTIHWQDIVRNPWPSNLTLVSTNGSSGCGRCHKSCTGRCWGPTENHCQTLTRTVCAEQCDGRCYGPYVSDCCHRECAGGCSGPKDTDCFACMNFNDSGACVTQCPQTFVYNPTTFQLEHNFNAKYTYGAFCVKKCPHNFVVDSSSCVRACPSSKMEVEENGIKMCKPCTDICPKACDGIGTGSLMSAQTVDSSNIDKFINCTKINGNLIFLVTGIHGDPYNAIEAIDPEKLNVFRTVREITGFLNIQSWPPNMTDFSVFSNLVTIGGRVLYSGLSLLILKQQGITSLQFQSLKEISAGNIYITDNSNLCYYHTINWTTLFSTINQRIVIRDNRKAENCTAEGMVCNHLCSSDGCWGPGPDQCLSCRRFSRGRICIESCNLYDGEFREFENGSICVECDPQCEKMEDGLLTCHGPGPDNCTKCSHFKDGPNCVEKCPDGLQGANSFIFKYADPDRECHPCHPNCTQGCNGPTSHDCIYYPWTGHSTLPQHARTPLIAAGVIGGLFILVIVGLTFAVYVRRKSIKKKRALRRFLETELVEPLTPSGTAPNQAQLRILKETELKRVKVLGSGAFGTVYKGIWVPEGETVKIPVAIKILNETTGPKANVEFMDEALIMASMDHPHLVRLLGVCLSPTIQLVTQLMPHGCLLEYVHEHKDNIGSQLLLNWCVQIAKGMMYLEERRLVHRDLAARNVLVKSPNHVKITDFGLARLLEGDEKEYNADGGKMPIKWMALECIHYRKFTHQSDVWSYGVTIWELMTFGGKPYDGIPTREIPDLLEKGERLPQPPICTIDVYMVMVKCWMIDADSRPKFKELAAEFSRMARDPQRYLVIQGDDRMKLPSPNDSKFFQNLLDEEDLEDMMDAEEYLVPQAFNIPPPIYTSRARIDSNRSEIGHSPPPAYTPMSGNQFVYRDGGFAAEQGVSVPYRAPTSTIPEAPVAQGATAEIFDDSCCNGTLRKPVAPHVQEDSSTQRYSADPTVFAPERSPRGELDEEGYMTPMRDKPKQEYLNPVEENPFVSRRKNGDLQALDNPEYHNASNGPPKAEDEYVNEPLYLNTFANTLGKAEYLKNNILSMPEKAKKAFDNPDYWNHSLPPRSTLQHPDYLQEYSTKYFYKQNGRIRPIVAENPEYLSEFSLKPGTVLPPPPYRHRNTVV
MAP3K12 (human), sequence (Q12852 whole entry, looked up): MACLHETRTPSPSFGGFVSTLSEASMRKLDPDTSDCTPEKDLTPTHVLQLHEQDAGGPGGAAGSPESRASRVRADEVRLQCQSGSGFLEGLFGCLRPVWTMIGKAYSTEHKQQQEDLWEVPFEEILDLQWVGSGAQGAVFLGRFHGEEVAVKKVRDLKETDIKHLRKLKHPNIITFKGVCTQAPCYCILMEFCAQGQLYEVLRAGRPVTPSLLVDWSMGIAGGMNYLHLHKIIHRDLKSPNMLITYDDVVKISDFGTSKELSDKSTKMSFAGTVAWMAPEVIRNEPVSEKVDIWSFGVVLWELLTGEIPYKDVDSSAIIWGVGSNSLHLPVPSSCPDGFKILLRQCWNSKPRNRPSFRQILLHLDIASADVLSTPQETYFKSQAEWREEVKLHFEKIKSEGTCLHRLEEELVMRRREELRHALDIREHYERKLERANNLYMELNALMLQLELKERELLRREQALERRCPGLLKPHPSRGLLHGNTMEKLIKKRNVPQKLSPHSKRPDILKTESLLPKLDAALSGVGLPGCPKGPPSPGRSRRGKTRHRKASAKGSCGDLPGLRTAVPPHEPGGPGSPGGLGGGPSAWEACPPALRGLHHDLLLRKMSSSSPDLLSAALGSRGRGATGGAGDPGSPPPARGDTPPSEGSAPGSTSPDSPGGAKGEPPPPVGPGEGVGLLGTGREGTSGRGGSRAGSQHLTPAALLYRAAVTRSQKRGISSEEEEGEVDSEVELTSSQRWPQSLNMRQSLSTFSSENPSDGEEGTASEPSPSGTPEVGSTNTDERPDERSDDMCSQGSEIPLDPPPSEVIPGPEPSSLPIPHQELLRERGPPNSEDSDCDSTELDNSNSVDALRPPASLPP

`CCOc1cc2ncc(C#N)c(Nc3ccc(F)c(Cl)c3)c2cc1NC(=O)/C=C/CN(C)C` gave a dissociation constant Kd on MYLK3 (human) of over 10 µM.

Take `NC(=O)c1ccc(-c2nc(-c3ccccn3)c(-c3ccc4c(c3)OCO4)[nH]2)cc1`: the Kd on ERBB4 (human), at MAP3K12 (human) and at MYLK3 (human) was over 10 µM each time.

`Oc1ccc(-c2nc(-c3ccc(F)cc3)c(-c3ccncc3)[nH]2)cc1`: the equilibrium dissociation constant (Kd) at ERBB4 (human), at MAP3K12 (human) and at MYLK3 (human) was over 10 µM throughout.

For `Nc1nc(Nc2ccc(S(N)(=O)=O)cc2)nn1C(=O)c1c(F)cccc1F`, the Kd at ERBB4 (human) and on MYLK3 (human) was over 10 µM throughout.

For `COCC(=O)NC/C=C/c1ccc2ncnc(Nc3ccc(Oc4ccc(C)nc4)c(C)c3)c2c1`, the Kd at MAP3K12 (human) and at MYLK3 (human) was over 10 µM throughout.

As a reminder, the Kd is a measure of binding affinity in units of concentration.
